The experiment relates to VSV-g pseudotyped HIV vector that expresses luciferase (PHIV). The experiment in a line: microbe, parasite or virus in culture. The class given is cell-based. As to conditions: Human immunodeficiency virus 1, HEK-293T, 48 h, read-out: PHIV IC50.

In the case of `CC(C)[C@@H]1CO[C@H]2Cn3cc(C(=O)NCc4ccc(F)cc4F)c(=O)c(O)c3C(=O)N21` [Example Z-25, (3R,11aS)—N-[(2,4-Difluorophenyl)methyl]-6-hydroxy-3-(1-methylethyl)-5,7-dioxo-2,3,5,7,11,11a-hexahydro[1,3]oxazolo[3,2-a]pyrido[1,2-d]pyrazine-8-carboxamide], the IC50 is below 10 nM.

`CSCC[C@H]1CO[C@@H]2Cn3cc(C(=O)NCc4ccc(F)cc4F)c(=O)c(O)c3C(=O)N12` [Example Z-26, (2S,11aR)—N-[(2,4-Difluorophenyl)methyl]-6-hydroxy-3-[2-(methylthio)ethyl]-5,7-dioxo-2,3,5,7,11,11a-hexahydro[1,3]oxazolo[3,2-a]pyrido[1,2-d]pyrazine-8-carboxamide]: the IC50 is below 10 nM.

With `CS(=O)(=O)CC[C@H]1CO[C@@H]2Cn3cc(C(=O)NCc4ccc(F)cc4F)c(=O)c(O)c3C(=O)N12` [Example Z-27, (3S,11aR)—N-[(2,4-Difluorophenyl)methyl]-6-hydroxy-3-[2-(methylsulfonyl)ethyl]-5,7-dioxo-2,3,5,7,11,11a-hexahydro[1,3]oxazolo[3,2-a]pyrido[1,2-d]pyrazine-8-carboxamide], the IC50 was above 100 nM.

In the case of `O=C(NCc1ccc(F)cc1F)c1cn2c(c(O)c1=O)C(=O)N1[C@@H](Cc3c[nH]c4ccccc34)CO[C@@H]1C2` [Example Z-28, (3S,11aR)—N-[(2,4-Difluorophenyl)methyl]-6-hydroxy-3-(1H-indo-3-ylmethyl)-5,7-dioxo-2,3,5,7,11,11a-hexahydro[1,3]oxazolo[3,2-a]pyrido[1,2-d]pyrazine-8-carboxamide], the IC50 was below 10 nM.

In the case of `CC(C)CN1CC[C@@H](C)N2C(=O)c3c(O)c(=O)c(C(=O)NCc4ccc(F)cc4)cn3C[C@H]12` [Example Z-29, (4R,12aR)—N-[(4-fluorophenyl)methyl]-7-hydroxy-4-methyl-1-(2-methylpropyl)-6,8-dioxo-6-[(phenylmethyl)oxy]-1,2,3,4,6,8,12,12a-octahydropyrido[1′,2′:4,5]pyrazino[1,2-a]pyrimidine-9-carboxamide], the IC50 was below 10 nM.

On to `CC(C)N1CC[C@@H](C)N2C(=O)c3c(O)c(=O)c(C(=O)NCc4ccc(F)cc4)cn3C[C@H]12` [Example Z-30, (4R,12aR)—N-[(4-Fluorophenyl)methyl]-7-hydroxy-4-methyl-1-(1-methylethyl)-6,8-dioxo-1,2,3,4,6,8,12,12a-octahydropyrido[1′,2′:4,5]pyrazino[1,2-a]pyrimidine-9-carboxamide], for which the IC50 was below 10 nM.

For `CC(C)CN1CC[C@H](C)N2C(=O)c3c(O)c(=O)c(C(=O)NCc4ccc(F)cc4F)cn3C[C@@H]12` [Example Z-31, (4S,12aS)—N-[(2,4-Difluorophenyl)methyl]-7-hydroxy-4-methyl-1-(2-methylpropyl)-6,8-dioxo-1,2,3,4,6,8,12,12a-octahydropyrido[1′,2′:4,5]pyrazino[1,2-a]pyrimidine-9-carboxamide], the IC50 is below 10 nM.

For `C[C@H]1CCN(CC2CC2)[C@@H]2Cn3cc(C(=O)NCc4ccc(F)cc4F)c(=O)c(O)c3C(=O)N12` [Example Z-32, (4S,12aS)-1-(Cyclopropylmethyl)-N-[(2,4-difluorophenyl)methyl]-7-hydroxy-4-methyl-7-hydroxy-4-methyl-6,8-dioxo-1,2,3,4,6,8,12,12a-octahydropyrido[1′,2′:4,5]pyrazino[1,2-a]pyrimidine-9-carboxamide], the IC50 was below 10 nM.

In the case of `C[C@H]1CCN(Cc2ccco2)[C@@H]2Cn3cc(C(=O)NCc4ccc(F)cc4F)c(=O)c(O)c3C(=O)N12` [Example Z-33, (4S,12aS)—N-[(2,4-Difluorophenyl)methyl]-1-(1-furanylmethyl)-7-hydroxy-4-methyl-6,8-dioxo-1,2,3,4,6,8,12,12a-octahydropyrido[1′,2′:4,5]pyrazino[1,2-a]pyrimidine-9-carboxamide], the IC50 was below 10 nM.

In the case of `C[C@H]1CCN(Cc2nccs2)[C@@H]2Cn3cc(C(=O)NCc4ccc(F)cc4F)c(=O)c(O)c3C(=O)N12` [Example Z-34, (4S,12aS)—N-[(2,4-Difluorophenyl)methyl]-7-hydroxy-4-methyl-6,8-dioxo-1-(1,3-thiazol-2-ylmethyl)-1,2,3,4,6,8,12,12a-octahydropyrido[1′,2′:4,5]pyrazino[1,2-a]pyrimidine-9-carboxamide], the 50% inhibitory concentration (IC50) is below 10 nM.

As for `O=C(NCc1ccc(F)cc1F)c1cn2c(c(O)c1=O)C(=O)N1[C@H](C2)N[C@H]2CCCC[C@@H]21` [Example Z-39, (6aR,7aS,11aS)—N-[(2,4-Difluorophenyl)methyl]-1-hydroxy-2,13-dioxo-2,6a,7,7a,8,9,10,11,11a,13-decahydro-6H-pyrido[1′,2′:4,5]pyrazino[1,2-a]benzimidazole-3-carboxamide], the IC50 is below 10 nM.

Regarding `O=C(NCc1ccc(F)cc1F)c1cn2c(c(O)c1=O)C(=O)N1[C@@H](C2)N[C@H]2CCCC[C@@H]21` [Example Z-40, (6aS,7S,11aS)—N-[(2,4-Difluorophenyl)methyl]-1-hydroxy-2,13-dioxo-2,6a,7,7a,8,9,10,11,11a,13-decahydro-6H-pyrido[1′,2′:4,5]pyrazino[1,2-a]benzimidazole-3-carboxamide], the IC50 is below 10 nM.

In the case of `O=C(NCc1ccc(F)cc1F)c1cn2c(c(O)c1=O)C(=O)N1C[C@@H]3CCCCN3[C@@H]1C2` [Example Z-41, (5aS,14aS)—N-[(2,4-Difluorophenyl)methyl]-11-hydroxy-10,12-dioxo-1,2,3,4,5a,6,10,12,14,14a-decahydropyrido[1,2-a]pyrido[1′,2′:4,5]imidazo[1,2-d]pyrazine-9-carboxamide], the IC50 was below 10 nM.

In the case of `O=C(NCc1ccc(F)cc1F)c1cn2c(c(O)c1=O)C(=O)N1CC[C@H]3CCCCN3[C@H]1C2` [Example Z-42, (4aR,14aR)—N-[(2,4-Difluorophenyl)methyl]-9-hydroxy-8,10-dioxo-2,3,4,4a,5,6,8,10,14,14a-decahydro-1H-pyrido[1,2-c]pyrido[1′,2′:4,5]pyrazino[1,2-a]pyrimidine-11-carboxamide], the IC50 was below 10 nM.

Consider `CC(C)CCN1CC[C@@H](C)N2C(=O)c3c(O)c(=O)c(C(=O)NCc4ccc(F)cc4F)cn3C[C@H]12` [Example Z-43], for which the IC50 was below 10 nM.

`CC(C)N1CC[C@H](C)N2C(=O)c3c(O)c(=O)c(C(=O)NCc4ccc(F)cc4F)cn3C[C@@H]12` [Example Z-44, (4S,12aS)—N-[(2,4-Difluorophenyl)methyl]-7-hydroxy-4-methyl-1-(1-methylethyl)-6,8-dioxo-1,2,3,4,6,8,12,12a-octahydropyrido[1′,2′:4,5]pyrazino[1,2-a]pyrimidine-9-carboxamide]: the IC50 was below 10 nM.

As for `CC(C)CCN1CC[C@H](C)N2C(=O)c3c(O)c(=O)c(C(=O)NCc4ccc(F)cc4F)cn3C[C@@H]12` [Example Z-45, (4S,12aS)—N-[(2,4-Difluorophenyl)methyl]-7-hydroxy-4-methyl-1-(3-methylbutyl)-6,8-dioxo-1,2,3,4,6,8,12,12a-octahydropyrido[1′,2′:4,5]pyrazino[1,2-a]pyrimidine-9-carboxamide], the half-inhibitory concentration (IC50) was below 10 nM.

Take `C[C@H]1CCN(Cc2cccnc2)[C@@H]2Cn3cc(C(=O)NCc4ccc(F)cc4F)c(=O)c(O)c3C(=O)N12` [Example Z-46, (4S,12aS)—N-[(2,4-Difluorophenyl)methyl]-7-hydroxy-4-methyl-6,8-dioxo-1-(3-pyridinylmethyl)-1,2,3,4,6,8,12,12a-octahydropyrido[1′,2′:4,5]pyrazino[1,2-a]-pyrimidine-9-carboxamide]: the IC50 is below 10 nM.

`C[C@H]1CCN(C2CC2)[C@@H]2Cn3cc(C(=O)NCc4ccc(F)cc4F)c(=O)c(O)c3C(=O)N12` [Example Z-47, (4S,12aS)-1-Cyclopropyl-N-[(2,4-difluorophenyl)methyl]-7-hydroxy-4-methyl-6,8-dioxo-1,2,3,4,6,8,12,12a-octahydropyrido[1′,2′:4,5]pyrazino[1,2-a]pyrimidine-9-carboxamide]: the IC50 is below 10 nM.

As to `COCCN1CC[C@H](C)N2C(=O)c3c(O)c(=O)c(C(=O)NCc4ccc(F)cc4F)cn3C[C@@H]12` [Example Z-48, (4S,12aS)—N-[(2,4-Difluorophenyl)methyl]-7-hydroxy-4-methyl-1-[2-(methyloxy)ethyl]-6,8-dioxo-1,2,3,4,6,8,12,12a-octahydropyrido[1′,2′:4,5]pyrazino[1,2-a]pyrimidine-9-carboxamide], the IC50 is below 10 nM.

Consider `CC[C@@H]1CO[C@H]2Cn3cc(C(=O)NCc4ccc(F)cc4F)c(=O)c(O)c3C(=O)N12` [Example Z-50, (3R,11aS)—N-[(2,4-Difluorophenyl)methyl]-3-ethyl-6-hydroxy-5,7-dioxo-2,3,5,7,11,11a-hexahydro[1,3]oxazolo[3,2-a]pyrido[1,2-d]pyrazine-8-carboxamide], for which the IC50 is below 10 nM.

`C[C@H]1CCN(C2CCC2)[C@@H]2Cn3cc(C(=O)NCc4ccc(F)cc4F)c(=O)c(O)c3C(=O)N12` [Example Z-59, (4S,12aS)-1-Cyclobutyl-N-[(2,4-difluorophenyl)methyl]-7-hydroxy-4-methyl-6,8-dioxo-1,2,3,4,6,8,12,12a-octahydropyrido[1′,2′:4,5]pyrazino[1,2-a]pyrimidine-9-carboxamide]: the IC50 was below 10 nM.

As to `C[C@H]1CCN(C2CCSCC2)[C@@H]2Cn3cc(C(=O)NCc4ccc(F)cc4F)c(=O)c(O)c3C(=O)N12` [Example Z-60, (4S,12aS)—N-[(2,4-Difluorophenyl)methyl]-7-hydroxy-4-methyl-6,8-dioxo-1-(tetrahydro-2H-thiopyran-4-yl)-1,2,3,4,6,8,12,12a-octahydropyrido[1′,2′:4,5]pyrazino[1,2-a]pyrimidine-9-carboxamide], the IC50 is below 10 nM.

These data come from patent US11267823B2, “Substituted 1,2,3,3a,4,5,7,9,13,13a-decahydropyrido[1′,2′:4,5]pyrazino[1,2-a]pyrrolo[1,2-c]pyrimidines having HIV integrase inhibitory activity” (Shionogi & Co., Ltd., priority 2005, dated 2022).
